A word on the inhibition: it is the percentage by which the read-out fell short of the control. In general, IC50 refers to the concentration that gives 50% inhibition.

Molecules are shown by their SMILES.

The target in experiment [1] is T1, Macrophage metalloelastase (Homo sapiens, UniProt P39900). As to the kind of experiment: Inhibition of MMP12 at 500 uM.
Target sequence in this assay (P39900 106-470 limits assumed): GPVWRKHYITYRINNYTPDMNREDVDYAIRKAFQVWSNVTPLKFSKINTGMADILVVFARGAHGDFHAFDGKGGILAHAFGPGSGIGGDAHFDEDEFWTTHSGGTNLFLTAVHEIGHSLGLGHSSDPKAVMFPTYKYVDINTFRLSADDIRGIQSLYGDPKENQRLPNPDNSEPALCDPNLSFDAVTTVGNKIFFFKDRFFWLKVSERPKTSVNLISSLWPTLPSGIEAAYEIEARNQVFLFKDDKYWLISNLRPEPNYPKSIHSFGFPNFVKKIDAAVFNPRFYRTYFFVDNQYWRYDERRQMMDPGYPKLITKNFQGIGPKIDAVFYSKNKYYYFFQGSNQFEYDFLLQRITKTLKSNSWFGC
The target of experiment [2] is T1, Macrophage metalloelastase. As to the kind of experiment: Inhibition of MMP12.
Target sequence in this assay (P39900 whole entry): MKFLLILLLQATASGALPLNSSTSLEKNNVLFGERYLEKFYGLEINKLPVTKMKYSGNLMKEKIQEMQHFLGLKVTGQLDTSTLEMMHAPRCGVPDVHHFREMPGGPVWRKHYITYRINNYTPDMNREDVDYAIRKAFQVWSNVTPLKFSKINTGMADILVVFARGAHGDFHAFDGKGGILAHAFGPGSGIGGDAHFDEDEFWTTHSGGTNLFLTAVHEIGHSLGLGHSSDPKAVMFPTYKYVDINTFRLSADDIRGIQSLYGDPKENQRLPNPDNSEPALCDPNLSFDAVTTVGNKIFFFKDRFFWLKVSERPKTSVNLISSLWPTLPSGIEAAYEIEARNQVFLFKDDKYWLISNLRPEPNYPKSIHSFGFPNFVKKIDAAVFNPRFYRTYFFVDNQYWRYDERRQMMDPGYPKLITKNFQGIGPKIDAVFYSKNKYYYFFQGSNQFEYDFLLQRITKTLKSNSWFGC
The target in experiment [3] is T1, Macrophage metalloelastase. The settings on record: 0.0025 uM.
Target sequence in this assay (P39900 106-470 limits assumed): as the sequence (P39900 106-470 limits assumed) above
Description: Inhibition of MMP12 at 0.0025 uM

In experiment [1], `Cc1nc(-c2ccc3c(c2)CCC(=O)N3)cs1` showed an inhibition of 10%. The IC50 in experiment [2] turned out to be 5000 µM.
`O=C1NC(=O)C(c2ccccc2)N1` (configuration not stated): in experiment [1], the inhibition was found to be 100%. In experiment [2], this molecule came in with an IC50 of 0.29 µM.
Turning to `CNC(=O)[C@H](Cc1c[nH]c2ccccc12)NC(=O)[C@@H](CC(=O)NO)CC(C)C` [ILOMASTAT], in experiment [2], the IC50 was determined as 0.001 µM. In experiment [3], this molecule registered an inhibition of 75%.
`Cc1ccc2c(c1)NC(=O)CO2` yielded an inhibition in experiment [1] of 60%. For the same molecule, in experiment [2], the IC50 came out at 355 µM.
Turning to `COc1ccc2nc[nH]c2c1`, the inhibition in experiment [1] amounted to 25%. The molecule also registered a concentration for half-maximal inhibition (IC50) in experiment [2] of 2000 µM.
On the same counts, the results for `Cn1cc2c(n1)-c1cc(Cl)ccc1SC2` are 30% and 1000 µM.

(Values after ChEMBL document CHEMBL1150410, “Identification of MMP-12 inhibitors by using biosensor-based screening of a fragment library” (J Med Chem, 2008).)
